From US20040121489A1, “COX-2 mediated altered prostaglandin balance in diabetes complications” (priority 2002, published 2004)

Experiments:
urinary PGE2/TXB2 ratio = experiment: Selective COX-2 and COX-1 blockage in mice, urinary PGE2/TXB2 ratio pre- and post-intervention; type: in vivo, mice (NOD, B6, B6.NODc1t)
Protocol: Urine was directly aliquoted and stored at −70° C. until assay. Enzyme immunoassay was used to particularly detect renal derived metabolites and the systemic derived metabolites. […] The EIA kits utilize a competitive binding assay between unlabeled compound from the specimen sample and a fixed quantity of peroxidase labeled compound for a limited number of binding sites on a compound specific antibody. Assays were performed in 96 well microtitre plates with 50 μL specimen. The unknown sample was bound to appropriate antiserum and conjugate and optical density read at 450 nm using a BIORAD 3550 UV microplate reader. Raw optical density data was converted to percent binding by plotting the percent binding B/Bo as a function of the log compound concentration. Concentration of the prostanoid compound was then directly calculated in pg/well. This concentration was then converted to pg/mL and subsequently to pg/mg urinary creatinine to adjust for urinary concentration, body size and age. The final ratios of PGE2/TXB2 or PGE2+6kPGF1α/TXB2 were then directly calculated.
Selective COX-2 and COX-1 blockage were analyzed in three groups of mice—NOD mice, B6 mice, and a congenic B6.NODc1t strain.
Eight age-matched female 6-8 week old mice of each strain (NOD, B6, and C1t) were divided into two groups.

COX-2 = target: T1, COX-2 (Mus musculus, UniProt Q05769); details: cited from Zhao et al., Mol. Carcinog. 1999; cited from earlier work
T1 construct: cyclooxygenase 2 and interleukin-1 alpha expression in SENCAR mouse epidermis
T1 sequence (Q05769 18-604): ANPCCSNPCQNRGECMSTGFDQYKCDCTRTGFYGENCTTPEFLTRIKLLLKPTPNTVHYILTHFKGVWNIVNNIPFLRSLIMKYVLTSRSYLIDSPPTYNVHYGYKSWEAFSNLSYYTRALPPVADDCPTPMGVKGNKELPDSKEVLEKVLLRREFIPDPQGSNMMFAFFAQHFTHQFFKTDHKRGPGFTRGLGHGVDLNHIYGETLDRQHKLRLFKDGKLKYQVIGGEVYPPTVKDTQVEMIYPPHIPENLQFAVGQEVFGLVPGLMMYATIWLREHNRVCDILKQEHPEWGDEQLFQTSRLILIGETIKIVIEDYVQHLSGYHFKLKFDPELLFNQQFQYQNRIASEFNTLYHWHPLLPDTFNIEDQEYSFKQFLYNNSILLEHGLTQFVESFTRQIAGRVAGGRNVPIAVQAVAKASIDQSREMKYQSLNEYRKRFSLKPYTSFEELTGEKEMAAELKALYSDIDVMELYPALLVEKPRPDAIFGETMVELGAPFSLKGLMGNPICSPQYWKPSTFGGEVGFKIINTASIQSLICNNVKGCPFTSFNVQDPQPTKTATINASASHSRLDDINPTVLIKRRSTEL

CS(=O)(=O)Nc1ccc([N+](=O)[O-])cc1OC1CCCCC1 [NS-398]
increase in the urinary PGE2/TXB2 ratio (urinary PGE2/TXB2 ratio; 10 mg/kg/d i.p. daily for 14 days, all the three strains of mice (NOD, B6, B6.NODc1t), female 6-8 week old): 3-7 fold | difference in urinary PGE2/TXB2 (Dunn's simultaneous multiple comparison test) (urinary PGE2/TXB2 ratio; NOD and B6.NODc1t group, COX-2 blocker 10 mg/kg/d i.p. 14 days, pre- vs post-intervention): significant

COc1cc(C2Oc3cc([C@H]4Oc5cc(O)cc(O)c5C(=O)[C@@H]4O)ccc3OC2CO)ccc1O (stereo partly drawn) [silybinin]
COX-2 inhibition relative to COX-1 inhibition (COX-2): significant COX-2 inhibition
